How the values were obtained:
[1] = test system: CYP3A89
Source text: FIG. 5A-51I. Development of an equine intestine-on-a-chip. FIG. 5A: Schematic representation of equine intestine-on-a-chip, including the top view of the Emulate chip (left), and a vertical slice (right) showing the epithelial channel (1, blue), the microvasculature channel (2, pink), and microchannels populated by organoid-derived intestinal epithelial cells (3) and endothelial cells (4), separated by flexible, porous membrane coated by extracellular matrices (5). FIG. 5B: Brightfield image of an equine intestine-chip cultured for 12 days in the presence of fluid flow and stretch (30 μl/h flow, 10% strain, 0.2 Hz). FIG. 5C: High magnification, phase contrast image of the intestinal epithelium channel depicted in b. […] FIG. 5E: Intestinal epithelium height measured in situ over a 400 μm section of the intestine-chip depicted in b. […] FIG. 5G: qPCR analysis of transcripts associated with intestine cell differentiation in organ-chips compared to 3D enteroid culture. (FIG. 5H: Testosterone conversion by epithelial CYP3A89 in equine intestine-chips was monitored by LC-MS/MS. Graph depicts the percent conversion of testosterone to 6-hydroxytestosterone at two concentrations. Scale bar represents 100 μm in panels 5B, 5C, 5D, and 5F. Schematic in 5A adapted and modified from Kasendra et al., eLife 2020.
Finally, studies were performed to evaluate the suitability of intestine chips for drug metabolism and CYP3A89 (CYP3A4 homolog (24)) induction. For these experiments, we inoculated testosterone into the inlet reservoir for the epithelial channel, flowed the testosterone-containing media through the chip at a rate of 30 μl/h, and collected samples from the effluent chambers from both the epithelial and vasculature channels.

[2] = test system: cellular esterase(s); assay: Ciclesonide pro-drug hydrolysis to des-CIC in equine airway (bronchioalveolar) organoid-derived transwells; type: in vitro ADME; conditions: 50 μM or 500 μM Ciclesonide, over time
Source text: (§1) FIG. 10A-10E. Identification and quantification of Ciclesonide metabolites produced by equine airway and hepatic organoid-derived tissue systems. FIG. 10A includes the structure of Ciclesonide, which is a pro-drug that is metabolized in the lungs to the active form, desisobutyryl-Ciclesonide (des-CIC). FIG. 10B includes MS spectra showing representative fragmentation pattern of kinetic des-CIC conversion from CIC hydrolysis generated by equine bronchioalveolar organoid-derived transwells treated with pro-drug. FIGS. 10C-10D plot quantification of des-CIC metabolite produced by equine airway organoid-derived transwells treated with 50 μM (FIG. 10C) or 500 μM (FIG. 10D) Ciclesonide as a function of time. FIG. 10E plots quantification of des-CIC metabolite produced by equine hepatic organoid-derived transwells treated with 500 μM Ciclesonide as a function of time. […]
FIG. 10B, includes representative fragmentation pattern of kinetic des-CIC conversion from CIC hydrolysis generated by equine bronchioalveolar organoid-derived transwells treated with pro-drug. […] Quantification of des-CIC metabolite produced by equine airway organoid-derived transwells treated with 50 μM (FIG. 10C) or 500 μM (FIG. 10D) Ciclesonide over time. […]

[3] = test system: cellular esterase(s); assay: Ciclesonide pro-drug hydrolysis to des-CIC in equine hepatic organoid-derived transwells; type: in vitro ADME; conditions: 500 μM Ciclesonide, over time
Source text: as §1
Apical samples were obtained from the transwell upper chamber containing the bronchioalveolar tissue; basolateral samples were obtained from the lower transwell chamber containing untreated medium. FIG. 10E includes the results of quantification of des-CIC metabolite produced by equine hepatic organoid-derived transwells treated with 500 μM Ciclesonide. […]

C[C@]12CC[C@H]3[C@@H](CCC4=CC(=O)CC[C@@]43C)[C@@H]1CC[C@@H]2O [testosterone]
channel in which testosterone metabolites were detected [1]: detected only in the epithelial channel effluent
time by which CYP3A89-mediated conversion of testosterone to 6-hydroxytestosterone was revealed ([1]; equine intestine-chip, flow 30 μl/h, effluent samples, post-treatment): ≤ 1 h
time of peak testosterone metabolism ([1]; horse): roughly 3 h

CC(C)C(=O)OCC(=O)[C@@]12O[C@H](C3CCCCC3)O[C@@H]1C[C@H]1[C@@H]3CCC4=CC(=O)C=C[C@]4(C)[C@H]3[C@@H](O)C[C@@]12C [Ciclesonide]
pro-drug hydrolysis to desisobutyryl-Ciclesonide (kinetics in words) [2]: rapid and linear
pro-drug hydrolysis to desisobutyryl-Ciclesonide (kinetics in words) [3]: rapid and linear

From patent publication US20220145265A1, “IN VITRO EQUINE MODEL SYSTEMS AND THEIR INTEGRATION INTO HORSE-ON-A-CHIP PLATFORM” (University of Kentucky Research Foundation, priority 2020, published 2022)
